Laboratory results reported in ChEMBL document CHEMBL5331122, “Structure-Activity Relationship Study of Antimicrobial Peptide PE2 Delivered Novel Linear Derivatives with Potential of Eradicating Biofilms and Low Incidence of Drug Resistance” (J Med Chem, 2023).
Converted amounts (≈) assume the structure as drawn. Where a SMILES comes first, the peptide text is derived from it. [ ]: non-standard residue; d: D form. The star is where a group is joined. Dab = NCC[C@H](N)C(=O)O; Hexanoyl = CCCCCC(=O)*

How the values were obtained:
Escherichia coli = assay: Antibacterial activity against Escherichia coli ATCC 25922 assessed as bacterial growth inhibition incubated for 18 hrs by broth microdilution method; format: functional
Klebsiella pneumoniae = assay: Antibacterial activity against Klebsiella pneumoniae ATCC 700603 assessed as bacterial growth inhibition incubated for 18 hrs by broth microdilution method; format: functional
Pseudomonas aeruginosa = assay: Antibacterial activity against Pseudomonas aeruginosa ATCC 27853 assessed as bacterial growth inhibition incubated for 18 hrs by broth microdilution method; format: functional
Staphylococcus aureus = assay: Antibacterial activity against Staphylococcus aureus ATCC 25923 assessed as bacterial growth inhibition incubated for 18 hrs by broth microdilution method; format: functional
Bacillus subtilis = assay: Antibacterial activity against Bacillus subtilis ATCC 23857 assessed as bacterial growth inhibition incubated for 18 hrs by broth microdilution method; format: functional
Enterococcus faecalis = assay: Antibacterial activity against Enterococcus faecalis ATCC 29212 assessed as bacterial growth inhibition incubated for 18 hrs by broth microdilution method; format: functional
Erythrocyte = assay: Hemolytic activity in mouse red blood cell assessed as hemolysis incubated for 1 hr; format: toxicity, cell-based; conditions: dose 4-256 µg/ml
[1] = Hemolytic activity in mouse red blood cells assessed as hemolysis at 256 microg/ml incubated for 1 hr relative to control; format: toxicity, cell-based, Erythrocyte; conditions: red blood cells (erythrocytes), at 256 µg/mL, read-out: Activity

| MIC (Escherichia coli) [µg/mL] | MIC (Klebsiella pneumoniae) [µg/mL] | MIC (Pseudomonas aeruginosa) [µg/mL] | MIC (Staphylococcus aureus) [µg/mL] | MIC (Bacillus subtilis) [µg/mL] | MIC (Enterococcus faecalis) [µg/mL] | Compound | HC10 (Erythrocyte) [µg/mL] | hemolysis at 1 h, 256 µg/mL [1] [%] |
| --- | --- | --- | --- | --- | --- | --- | --- | --- |
| 16 (≈ 13.9 µM) | 32 (≈ 27.9 µM) | 4 (≈ 3.48 µM) | 16 (≈ 13.9 µM) | 4 (≈ 3.48 µM) | 64 (≈ 55.7 µM) | CCCCCC(=O)N[C@@H](CCN)C(=O)N[C@H](C(=O)N[C@@H](CCN)C(=O)N[C@H](Cc1ccccc1)C(=O)N[C@@H](CC(C)C)C(=O)N[C@@H](CCN)C(=O)N[C@@H](C(=O)N[C@@H](CC(C)C)C(=O)N[C@@H](Cc1ccccc1)C(N)=O)C(C)C)[C@@H](C)CC | 512 | < 5 |
| 16 (≈ 14.7 µM) | 64 (≈ 59 µM) | 64 (≈ 59 µM) | 32 (≈ 29.5 µM) | 4 (≈ 3.69 µM) | 64 (≈ 59 µM) | CCCCCC(=O)N[C@@H](CCN)C(=O)N[C@H](C(=O)N[C@H]1CCNC(=O)[C@H]([C@@H](C)O)NC(=O)[C@H](CC(C)C)NC(=O)[C@@H](C(C)C)NC(=O)[C@H](CCN)NC(=O)[C@H](CC(C)C)NC(=O)[C@@H](Cc2ccccc2)NC1=O)[C@@H](C)CC | 512 | < 5 |
| 32 (≈ 28.6 µM) | 64 (≈ 57.2 µM) | 4 (≈ 3.58 µM) | > 128 | 8 (≈ 7.15 µM) | > 128 | CC[C@H](C)[C@H](NC(=O)[C@H](CCN)NC(=O)CC(O)C(C)C)C(=O)N[C@@H](CCN)C(=O)N[C@H](Cc1ccccc1)C(=O)N[C@@H](CC(C)C)C(=O)N[C@@H](CCN)C(=O)N[C@@H](C(=O)N[C@@H](CC(C)C)C(=O)N[C@H](C(N)=O)[C@@H](C)O)C(C)C (stereo not given in full) | 512 | < 2 |
| 32 (≈ 29.8 µM) | 64 (≈ 59.7 µM) | 4 (≈ 3.73 µM) | 64 (≈ 59.7 µM) | 8 (≈ 7.46 µM) | > 128 | CCCCCC(=O)N[C@@H](CCN)C(=O)N[C@H](C(=O)N[C@@H](CCN)C(=O)N[C@H](Cc1ccccc1)C(=O)N[C@@H](CC(C)C)C(=O)N[C@@H](CCN)C(=O)N[C@@H](C(=O)N[C@@H](CC(C)C)C(=O)N[C@@H](C)C(N)=O)C(C)C)[C@@H](C)CC | 512 | < 5 |
| 32 (≈ 29.1 µM) | 32 (≈ 29.1 µM) | 16 (≈ 14.5 µM) | > 128 | 16 (≈ 14.5 µM) | > 128 | CC[C@H](C)[C@@H]1NC(=O)[C@H](CCN)NC(=O)[C@H](CC(C)C)NC(=O)[C@H]([C@@H](C)O)NC(=O)[C@H](CC(C)C)NC(=O)[C@@H](C(C)C)NC(=O)[C@H](CCN)NC(=O)[C@H](CC(C)C)NC(=O)[C@@H](Cc2ccccc2)NC(=O)[C@H](CCN)NC1=O | 512 | < 5 |
| 16 (≈ 14.5 µM) | 32 (≈ 29 µM) | 4 (≈ 3.63 µM) | 32 (≈ 29 µM) | 4 (≈ 3.63 µM) | 128 (≈ 116 µM) | CCCCCC(=O)N[C@@H](CCN)C(=O)N[C@H](C(=O)N[C@@H](CCN)C(=O)N[C@H](Cc1ccccc1)C(=O)N[C@@H](CC(C)C)C(=O)N[C@@H](CCN)C(=O)N[C@@H](C(=O)N[C@@H](CC(C)C)C(=O)N[C@H](C(N)=O)[C@@H](C)O)C(C)C)[C@@H](C)CC | 512 | < 10 |
| 8 (≈ 6.66 µM) | 16 (≈ 13.3 µM) | 16 (≈ 13.3 µM) | 32 (≈ 26.7 µM) | 16 (≈ 13.3 µM) | 8 (≈ 6.66 µM) | CCCCCCCCCCCCC(=O)N[C@@H](CCN)C(=O)N[C@H](C(=O)N[C@@H](CCN)C(=O)N[C@H](Cc1ccccc1)C(=O)N[C@@H](CC(C)C)C(=O)N[C@@H](CCN)C(=O)N[C@@H](C(=O)N[C@@H](CC(C)C)C(=O)N[C@H](C(N)=O)[C@@H](C)O)C(C)C)[C@@H](C)CC | 8 | – |
| 32 (≈ 29.5 µM) | 64 (≈ 59 µM) | > 128 | > 128 | 128 (≈ 118 µM) | > 128 | CCCCCC(=O)N[C@H]1CCNC(=O)[C@H]([C@@H](C)O)NC(=O)[C@H](CC(C)C)NC(=O)[C@@H](C(C)C)NC(=O)[C@H](CCN)NC(=O)[C@H](CC(C)C)NC(=O)[C@@H](Cc2ccccc2)NC(=O)[C@H](CCN)NC(=O)[C@H]([C@@H](C)CC)NC1=O | 512 | < 5 |
| 4 (≈ 3.43 µM) | 8 (≈ 6.87 µM) | 16 (≈ 13.7 µM) | 16 (≈ 13.7 µM) | 4 (≈ 3.43 µM) | 64 (≈ 55 µM) | CCCCCC(=O)N[C@@H](CCN)C(=O)N[C@H](C(=O)N[C@@H](CCN)C(=O)N[C@H](Cc1ccccc1)C(=O)N[C@@H](CC(C)C)C(=O)N[C@@H](CCN)C(=O)N[C@@H](C(=O)N[C@@H](CC(C)C)C(=O)N[C@@H](Cc1ccc(O)cc1)C(N)=O)C(C)C)[C@@H](C)CC | 512 | < 5 |
| 4 (≈ 3.45 µM) | 4 (≈ 3.45 µM) | 4 (≈ 3.45 µM) | 4 (≈ 3.45 µM) | 4 (≈ 3.45 µM) | 8 (≈ 6.91 µM) | CCCCCCCCCC(=O)N[C@@H](CCN)C(=O)N[C@H](C(=O)N[C@@H](CCN)C(=O)N[C@H](Cc1ccccc1)C(=O)N[C@@H](CC(C)C)C(=O)N[C@@H](CCN)C(=O)N[C@@H](C(=O)N[C@@H](CC(C)C)C(=O)N[C@H](C(N)=O)[C@@H](C)O)C(C)C)[C@@H](C)CC | 32 | – |
| 16 (≈ 14.7 µM) | 128 (≈ 118 µM) | 128 (≈ 118 µM) | 32 (≈ 29.5 µM) | 4 (≈ 3.69 µM) | > 128 | CCCCCC(=O)N[C@@H](CCN)C(=O)N[C@H](C(=O)N[C@@H](CCN)C(=O)N[C@H](Cc1ccccc1)C(=O)N[C@@H](CC(C)C)C(=O)N[C@H]1CCNC(=O)[C@H]([C@@H](C)O)NC(=O)[C@H](CC(C)C)NC(=O)[C@@H](C(C)C)NC1=O)[C@@H](C)CC | 512 | < 5 |
| 32 (≈ 28.6 µM) | 64 (≈ 57.2 µM) | 4 (≈ 3.58 µM) | 128 (≈ 114 µM) | 8 (≈ 7.15 µM) | > 128 | CCC[C@H](O)CC(=O)N[C@@H](CCN)C(=O)N[C@H](C(=O)N[C@@H](CCN)C(=O)N[C@H](Cc1ccccc1)C(=O)N[C@@H](CC(C)C)C(=O)N[C@@H](CCN)C(=O)N[C@@H](C(=O)N[C@@H](CC(C)C)C(=O)N[C@H](C(N)=O)[C@@H](C)O)C(C)C)[C@@H](C)CC | 512 | < 2 |
| 16 (≈ 14.4 µM) | 32 (≈ 28.7 µM) | 4 (≈ 3.59 µM) | 32 (≈ 28.7 µM) | 8 (≈ 7.18 µM) | 128 (≈ 115 µM) | CCCCCC(=O)N[C@@H](CCN)C(=O)N[C@H](C(=O)N[C@@H](CCN)C(=O)N[C@H](Cc1ccccc1)C(=O)N[C@@H](CC(C)C)C(=O)N[C@@H](CCN)C(=O)N[C@@H](C(=O)N[C@@H](CC(C)C)C(=O)N[C@H](C(N)=O)[C@@H](C)CC)C(C)C)[C@@H](C)CC | 512 | < 5 |
| 64 (≈ 58.1 µM) | 128 (≈ 116 µM) | 32 (≈ 29.1 µM) | > 128 | 32 (≈ 29.1 µM) | > 128 | C/C=C(/NC(=O)[C@H](CC(C)C)NC(=O)[C@H](NC(=O)[C@H](CCN)NC(=O)[C@H](CC(C)C)NC(=O)[C@@H](Cc1ccccc1)NC(=O)[C@H](CCN)NC(=O)[C@@H](NC(=O)[C@H](CCN)NC(=O)C[C@@H](O)CCC)[C@@H](C)CC)C(C)C)C(=O)O | 512 | – |
| 32 (≈ 29.4 µM) | 64 (≈ 58.8 µM) | 4 (≈ 3.68 µM) | 64 (≈ 58.8 µM) | 8 (≈ 7.35 µM) | 128 (≈ 118 µM) | CCCCCC(=O)N[C@@H](CCN)C(=O)N[C@H](C(=O)N[C@@H](CCN)C(=O)N[C@H](Cc1ccccc1)C(=O)N[C@@H](CC(C)C)C(=O)N[C@@H](CCN)C(=O)N[C@@H](C(=O)N[C@@H](CC(C)C)C(=O)N[C@@H](CO)C(N)=O)C(C)C)[C@@H](C)CC (Hexanoyl-[Dab]I[Dab][dF]L[Dab][dV]LS-NH2) | 512 | < 5 |
| 4 (≈ 3.41 µM) | 2 (≈ 1.71 µM) | 2 (≈ 1.71 µM) | 2 (≈ 1.71 µM) | 2 (≈ 1.71 µM) | 8 (≈ 6.82 µM) | CCCCCCCCCCC(=O)N[C@@H](CCN)C(=O)N[C@H](C(=O)N[C@@H](CCN)C(=O)N[C@H](Cc1ccccc1)C(=O)N[C@@H](CC(C)C)C(=O)N[C@@H](CCN)C(=O)N[C@@H](C(=O)N[C@@H](CC(C)C)C(=O)N[C@H](C(N)=O)[C@@H](C)O)C(C)C)[C@@H](C)CC | 16 | – |
| 64 (≈ 56.7 µM) | 32 (≈ 28.3 µM) | 2 (≈ 1.77 µM) | 64 (≈ 56.7 µM) | 8 (≈ 7.08 µM) | 128 (≈ 113 µM) | CCCCCC(=O)N[C@@H](CCN)C(=O)N[C@H](C(=O)N[C@@H](CCN)C(=O)N[C@H](Cc1ccccc1)C(=O)N[C@@H](CC(C)C)C(=O)N[C@@H](CCN)C(=O)N[C@@H](C(=O)N[C@@H](CC(C)C)C(=O)N[C@@H](CCCCN)C(N)=O)C(C)C)[C@@H](C)CC | 512 | < 5 |
| 16 (≈ 13.5 µM) | 32 (≈ 26.9 µM) | 4 (≈ 3.37 µM) | 8 (≈ 6.74 µM) | 4 (≈ 3.37 µM) | 32 (≈ 26.9 µM) | CCCCCC(=O)N[C@@H](CCN)C(=O)N[C@H](C(=O)N[C@@H](CCN)C(=O)N[C@H](Cc1ccccc1)C(=O)N[C@@H](CC(C)C)C(=O)N[C@@H](CCN)C(=O)N[C@@H](C(=O)N[C@@H](CC(C)C)C(=O)N[C@@H](Cc1c[nH]c2ccccc12)C(N)=O)C(C)C)[C@@H](C)CC | 512 | < 5 |
